From the supplement of paper PMC13380429

What was measured:
Conditions in all cases: 72 h
Caco-2 [1] = assay: relative viability EC50 (midpoint between 100% and the lowest measured viability); higher = less toxic
Vero E6 [2] = assay: as above
HepG2 [3] = assay: as above
Calu-3 [4] = assay: as above
Caco-2 [5] = assay: drug sensitivity score (DSS) for viability; higher = more toxic; extreme values may be limits of the assay
Vero E6 [6] = assay: as above
HepG2 [7] = assay: as above
Calu-3 [8] = assay: as above
Caco-2 [9] = assay: cell viability relative to DMSO; higher = less toxic
Vero E6 [10] = assay: as above
HepG2 [11] = assay: as above
Calu-3 [12] = assay: as above
U2OS [13] = assay: relative viability EC50 (midpoint between 100% and the lowest measured viability); higher = less toxic
U2OS [14] = assay: drug sensitivity score (DSS) for viability; higher = more toxic; extreme values may be limits of the assay
U2OS [15] = assay: cell viability relative to DMSO; higher = less toxic

SMILES	relative viability EC50 (Caco-2 [1]) [µM]	relative viability EC50 (Vero E6 [2]) [µM]	relative viability EC50 (HepG2 [3]) [µM]	relative viability EC50 (Calu-3 [4]) [µM]	drug sensitivity score (Caco-2 [5])	drug sensitivity score (Vero E6 [6])	drug sensitivity score (HepG2 [7])	drug sensitivity score (Calu-3 [8])	cell viability (Caco-2 [9]; 1 nM) [%]	cell viability (Caco-2 [9]; 10 nM) [%]	cell viability (Caco-2 [9]; 100 nM) [%]	cell viability (Caco-2 [9]; 1000 nM) [%]	cell viability (Caco-2 [9]; 10000 nM) [%]	cell viability (Vero E6 [10]; 1 nM) [%]	cell viability (Vero E6 [10]; 10 nM) [%]	cell viability (Vero E6 [10]; 100 nM) [%]	cell viability (Vero E6 [10]; 1000 nM) [%]	cell viability (Vero E6 [10]; 10000 nM) [%]	cell viability (HepG2 [11]; 1 nM) [%]	cell viability (HepG2 [11]; 10 nM) [%]	cell viability (HepG2 [11]; 100 nM) [%]	cell viability (HepG2 [11]; 1000 nM) [%]	cell viability (HepG2 [11]; 10000 nM) [%]	cell viability (Calu-3 [12]; 1 nM) [%]	cell viability (Calu-3 [12]; 10 nM) [%]	cell viability (Calu-3 [12]; 100 nM) [%]	cell viability (Calu-3 [12]; 1000 nM) [%]	cell viability (Calu-3 [12]; 10000 nM) [%]	relative viability EC50 (U2OS [13]) [µM]	drug sensitivity score (U2OS [14])	cell viability (U2OS [15]; 1 nM) [%]	cell viability (U2OS [15]; 10 nM) [%]	cell viability (U2OS [15]; 100 nM) [%]	cell viability (U2OS [15]; 1000 nM) [%]	cell viability (U2OS [15]; 10000 nM) [%]
COc1ccc(-n2c(C)c([N+](=O)[O-])c3ccc(O)cc32)cc1 [ID-8]	> 10	> 10	> 10	> 10	0	0	0	2.6	98.3	111	91	92.2	94.5	96.3	103	94.2	94.5	92.1	99.3	102	97.4	106	93.6	99.7	97.6	91.1	79.9	88.4							
CCCSc1nc(N[C@@H]2C[C@H]2c2ccc(F)c(F)c2)c2nnn([C@@H]3C[C@H](OCCO)[C@@H](O)[C@H]3O)c2n1 [ticagrelor]	> 10		> 10	> 10	0.3		0	0	98.1	99.5	98	97.1	86.5						107	112	95.9	99.1	89.5	99.9	99.6	101	103	104	> 10	0	104	96.3	101	103	96.3
Cn1c(N2CCCCS2(=O)=O)nc(C(=O)NCc2ccc(F)cc2)c(O)c1=O	> 10	> 10	3.68	> 10	0	0.1	2.4	0	85.9	88.6	88.9	92.7	81.1	103	96.6	100	102	85.4	103	96.9	105	106	46.9	98.4	89.8	95.6	102	97.4		3.4	94.3	100	94.5	93.7	54.9
CO[C@H]1CC[C@H](N2C(=O)CNc3ncc(-c4ccc(C(C)(C)O)nc4)nc32)CC1 [CC-223]	1.36		2.39	1.11	5.8	3.7	4	6.6	102	104	99.4	81.9	42.7	110	104	99.8	92.5	52.7	103	95.6	98.9	94.6	42.9	94.6	87.1	106	74.4	41.6		2.6	99.1	95.6	102	97.7	56
